Experiment [1] addresses Recombinant human c-Cbl (aa 47-435) (Homo sapiens (Human), UniProt P22681). As to the kind of experiment: c-Cbl Biochemical Assay (TR-FRET). As for the experimental part:
Recombinant human c-Cbl (aa 47-435) was expressed in E. coli, purified and biotinylated in vitro. The protein was diluted to 12 nM in freshly prepared assay buffer consisting of 50 mM HEPES, pH 7.0, 100 mM NaCl, 5 mM MgCl2, 0.01% Triton-X 100, 0.01% BSA and 1 mM DTT. Recombinant human Src (aa 254-536)-[…]-Zap-70 (aa 281-297) fusion protein was expressed in E. coli and purified. Protein was diluted in assay buffer to 5-20 nM and ATP was added to 1 mM. Recombinant human UBE2D2([…]) was expressed in E. coli, purified and ubiquitinated and Bodipy labelled in vitro. Protein was diluted to 200 nM in assay buffer without MgCl2 (or Cisbio PPI buffer). Streptavidin-Terbium was added to 2 nM and EDTA to 10 mM, to provide a binding assay mix. Compounds were dissolved in DMSO and diluted to prepare a ten-point half log dilution series. 100 nl of each compound concentration was dispensed in duplicate in a 384 well black assay plate using acoustic dispensing. Wells for maximum signal controls received 100 nl of DMSO only and wells for minimum controls received 100 nl of a reference inhibitor compound at a final assay concentration of […] to produce 100% inhibition. 5 μl of diluted c-cbl enzyme was added to all wells of the assay plate and incubated at RT for 30 min. The enzyme assay was initiated by addition of 5 μl of Src-Zap/ATP mix to all wells, and the plate incubated at RT for 60-90 min. The enzyme reaction was terminated and the binding reaction was initiated by adding 10 μl of binding assay mix to all wells and incubating the plate at RT for 60 min prior to assay read. Final assay conditions consisted of 6 nM c-cbl, 2.5-10 nM Src-Zap70, 0.5 mM ATP, 1% (v/v) DMSO (enzyme reaction) and 100 nM UBE2D2([…])-Ub-FL-BODIPY, 5 mM EDTA, 1 nM Streptavidin-Tb (binding reaction). The HTRF assay signal was measured at 520 nm on an Envision plate reader, with reference signal at 485 or 620 nm. Data was normalized using maximum and minimum assay controls: % Inhibition=100-(100*((maximum control)-unknown)/(maximum control-minimum control)). A 4-parameter dose-response equation was used to fit the normalized dose-response data and derive an IC50 for test compounds.

Experiment [2] addresses Recombinant human Cbl-b (aa 36-427) (Homo sapiens (Human), UniProt Q13191). The experiment in a line: Cbl-b Biochemical Assay (TR-FRET). The conditions noted are these: read-out: TR-FRET hCbl-b IC50. In short, it runs like this: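 Two-step TR-FRET: 6 nM biotinylated Cbl-b preincubated 30-60 min with compound, then 60 min at RT with 1-2.5 nM Src-Zap70 and 0.5 mM ATP in HEPES pH 7.0 buffer, 1% DMSO. Stopped with 5 mM EDTA plus 100 nM UBE2D2-Ub-FL-BODIPY and 1 nM streptavidin-Tb, 60 min; 520 nm signal; IC50 from 4-parameter fit.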

Molecules are shown by their SMILES. pIC50: −log10 of the molar value.

IC50 data for ten molecules are collected here from US12325697B2 (Nimbus Clio, Inc., priority 2021, dated 2025).

Sequence of Recombinant human c-Cbl (aa 47-435) (P22681 47-435): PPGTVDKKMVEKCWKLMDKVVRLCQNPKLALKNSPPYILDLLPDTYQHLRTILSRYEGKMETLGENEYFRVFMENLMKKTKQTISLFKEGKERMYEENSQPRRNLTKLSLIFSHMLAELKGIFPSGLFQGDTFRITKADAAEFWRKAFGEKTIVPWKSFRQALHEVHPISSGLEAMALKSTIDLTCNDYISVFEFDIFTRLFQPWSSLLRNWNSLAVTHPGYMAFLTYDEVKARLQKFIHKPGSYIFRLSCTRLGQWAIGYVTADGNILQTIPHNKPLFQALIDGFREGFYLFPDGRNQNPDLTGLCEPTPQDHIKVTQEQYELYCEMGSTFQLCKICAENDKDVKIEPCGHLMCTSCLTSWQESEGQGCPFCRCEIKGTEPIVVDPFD
Sequence of Recombinant human Cbl-b (aa 36-427) (Q13191 36-427): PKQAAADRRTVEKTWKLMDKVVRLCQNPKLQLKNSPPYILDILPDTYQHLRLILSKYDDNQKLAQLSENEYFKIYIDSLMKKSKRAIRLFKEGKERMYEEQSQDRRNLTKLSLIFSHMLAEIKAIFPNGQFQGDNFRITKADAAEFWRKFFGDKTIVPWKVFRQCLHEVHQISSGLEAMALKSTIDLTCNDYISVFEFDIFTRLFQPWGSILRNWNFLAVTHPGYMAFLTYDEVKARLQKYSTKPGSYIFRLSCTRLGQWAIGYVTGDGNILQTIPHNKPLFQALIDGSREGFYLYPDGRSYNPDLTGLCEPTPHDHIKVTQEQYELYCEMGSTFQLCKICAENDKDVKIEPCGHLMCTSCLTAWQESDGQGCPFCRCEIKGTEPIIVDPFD

As to `CCOc1cc(-c2ccc(Cl)cc2-c2nncn2C)cc(N2Cc3ccc(CNCC4(O)CCC4)cc3C2=O)n1` [AHT-2, 2-(4-(4-Chloro-2-(4-methyl-4H-1,2,4-triazol-3-yl)phenyl)-6-ethoxypyridin-2-yl)-6-((((1-hydroxycyclobutyl)methyl)amino)methyl)isoindolin-1-one], the pIC50 in experiment [1] and in experiment [2] was no less than 6.70 throughout.
With `Cn1cnnc1-c1ccccc1-c1cc(N2Cc3c(cccc3C(F)(F)F)C2=O)cc2cc[nH]c12` [AHY-5, 2-{7-[2-(4-Methyl-1,2,4-triazol-3-yl)phenyl]-1H-indol-5-yl}-4-(trifluoromethyl)-3H-isoindol-1-one], the pIC50 in experiment [1] and in experiment [2] was 4.30 to 5.00 throughout.
For the molecule `C[C@H](NCC1CC1)c1ccc2c(c1)C(=O)N(c1cc(-c3ccc(C#N)cc3-c3nncn3C)cc(C3CC3)n1)C2` [AJK-1, (S)-4-(2-Cyclopropyl-6-(6-(1-((cyclopropylmethyl)amino)ethyl)-1-oxoisoindolin-2-yl)pyridin-4-yl)-3-(4-methyl-4H-1,2,4-triazol-3-yl)benzonitrile], the pIC50 in experiment [1] and in experiment [2] was no less than 6.70 each time.
For `Cn1cnnc1-c1cc(C#N)ccc1-c1cc(C2CC2)nc(N2Cc3ccc(CNCC4CCC4)cc3C2=O)c1` [AIA-2, 4-[2-(6-{[(Cyclobutylmethyl)amino]methyl}-1-oxo-3H-isoindol-2-yl)-6-cyclopropylpyridin-4-yl]-3-(4-methyl-1,2,4-triazol-3-yl)benzonitrile], the pIC50 in experiment [1] and in experiment [2] was no less than 6.70 each time.
`Cn1cnnc1-c1cc(C#N)ccc1-c1cc(C2CC2)nc(N2Cc3c(F)cc(CN[C@]4(C)COC[C@@H]4O)cc3C2=O)c1` (stereo in doubt) [AOF-9, 4-[2-Cyclopropyl-6-(4-fluoro-6-{[(4-hydroxy-3-methyloxolan-3-yl)amino]methyl}-1-oxo-3H-isoindol-2-yl)pyridin-4-yl]-3-(4-methyl-1,2,4-triazol-3-yl)benzonitrile]: the negative logarithm of the IC50 (pIC50) in experiment [1] and in experiment [2] was greater than 6.70 each time.
Consider `Cn1cnnc1-c1cc(F)ccc1-c1cc(C2CC2)nc(N2Cc3c(F)cc(CNCC4(O)CCC4)cc3C2=O)c1` [AMJ-1, 2-{6-Cyclopropyl-4-[4-fluoro-2-(4-methyl-1,2,4-triazol-3-yl)phenyl]pyridin-2-yl}-4-fluoro-6-({[(1-hydroxycyclobutyl)methyl]amino}methyl)-3H-isoindol-1-one], for which the negative-log IC50 (pIC50) in experiment [1] and in experiment [2] was no less than 6.70 each time.
Regarding `C#CCOc1ccc(-c2cc(NCC)nc(N3Cc4c(cccc4C(F)(F)F)C3=O)c2)c(-c2nncn2C)c1` [AHU-12, 2-[6-(Ethylamino)-4-[2-(4-methyl-1,2,4-triazol-3-yl)-4-(prop-2-yn-1-yloxy)phenyl]pyridin-2-yl]-4-(trifluoromethyl)-3H-isoindol-1-one], the results for the pIC50 in experiment [1] and in experiment [2] were 6.00 to 6.70 and no less than 6.70, respectively.
For `C[C@H]1CCCN(Cc2cc(F)c3c(c2)C(=O)N(c2cc(-c4ccc(C#N)cc4-c4nncn4C)cc(C4CC4)n2)C3)C1` [AKY-1, 4-[2-Cyclopropyl-6-(4-fluoro-6-{[(3S)-3-methylpiperidin-1-yl]methyl}-1-oxo-3H-isoindol-2-yl)pyridin-4-yl]-3-(4-methyl-1,2,4-triazol-3-yl)benzonitrile] the same measures were no less than 6.70 and no less than 6.70.
The corresponding values for `CCOc1cc(-c2ccc(F)cc2-c2nncn2C)cc(N2Cc3c(OC)cc(CN(C)CC4(O)CCC4)cc3C2=O)n1` [AJO-2, 2-(6-Ethoxy-4-(4-fluoro-2-(4-methyl-4H-1,2,4-triazol-3-yl)phenyl)pyridin-2-yl)-6-((((1-hydroxycyclobutyl)methyl)(methyl)amino)methyl)-4-methoxyisoindolin-1-one] are no less than 6.70 and no less than 6.70.
For `Cn1cnnc1-c1cc(C#N)ccc1-c1cc(C2CC2)nc(N2Cc3ccc(CNC[C@@H]4CCOC4)cc3C2=O)c1` [ANY-2, 4-{2-Cyclopropyl-6-[1-oxo-6-({[(3S)-oxolan-3-ylmethyl]amino}methyl)-3H-isoindol-2-yl]pyridin-4-yl}-3-(4-methyl-1,2,4-triazol-3-yl)benzonitrile] the same measures were no less than 6.70 and no less than 6.70.
